The results in this text go back to patent publication US11401270B2, “Alcoxyamino derivatives for treating pain and pain related conditions” (ESTEVE PHARMACEUTICALS, S.A., priority 2017, dated 2022).

The structures appear in SMILES notation. Where two headings read alike, the source gives them in different places. Some results are limits rather than exact numbers.

Experiment [1] concerns the target Human α2δ-1 subunit of Cav2.2 calcium channel (Homo sapiens (Human), UniProt P54289). Put plainly: Binding Assay to Human α2δ-1 Subunit of Cav2.2 Calcium Channel. The conditions noted are these: human α2δ-1 enriched membranes, 15 nM [3H]-Gabapentin, read-out: Ki(nM) alpha2delta Hum. In outline: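 Radioligand filtration binding at the α2δ-1 subunit, test compound at five concentrations; nonspecific binding defined with 10 μM pregabalin. Incubated 60 min at 27 °C, stopped by GF/C filtration (0.5% PEI presoaked) with ice-cold 50 mM Tris-HCl pH 7.4 washes; bound radioactivity counted by scintillation.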

The target of experiment [2] is Human norepinephrine transporter (NET) (Homo sapiens (Human), UniProt P23975). Put plainly: Binding Assay to Human Norepinephrine Transporter (NET). The conditions noted are these: Table 2, dual compounds; human NET enriched membranes, 5 nM [3H]-Nisoxetin; read-out: Ki(nM) NET Hum. The method in brief: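 hNET-enriched membranes (5 μg) incubated with 5 nM [3H]-nisoxetine in Tris pH 7.4 containing 120 mM NaCl and 5 mM KCl, with compound at five concentrations, 60 min at 4 °C. Non-specific binding with 10 μM desipramine; filtration and scintillation counting.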
Human norepinephrine transporter (NET), sequence (P23975 whole entry): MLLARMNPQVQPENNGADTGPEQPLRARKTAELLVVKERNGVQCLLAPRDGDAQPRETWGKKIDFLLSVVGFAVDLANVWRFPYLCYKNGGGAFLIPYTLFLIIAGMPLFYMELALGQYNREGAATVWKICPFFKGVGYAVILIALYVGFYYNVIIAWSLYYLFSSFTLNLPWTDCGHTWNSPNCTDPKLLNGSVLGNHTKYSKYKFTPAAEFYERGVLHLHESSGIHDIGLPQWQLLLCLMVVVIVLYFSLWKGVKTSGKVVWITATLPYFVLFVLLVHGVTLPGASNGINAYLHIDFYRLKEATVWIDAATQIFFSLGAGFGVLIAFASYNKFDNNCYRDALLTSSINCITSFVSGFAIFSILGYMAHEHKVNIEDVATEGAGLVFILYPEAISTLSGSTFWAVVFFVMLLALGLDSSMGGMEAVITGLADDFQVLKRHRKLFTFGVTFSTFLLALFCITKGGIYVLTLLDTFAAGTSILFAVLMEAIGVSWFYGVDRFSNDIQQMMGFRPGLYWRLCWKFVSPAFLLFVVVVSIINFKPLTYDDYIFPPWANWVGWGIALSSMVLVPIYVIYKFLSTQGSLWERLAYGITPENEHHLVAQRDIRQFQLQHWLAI

Human α2δ-1 subunit of Cav2.2 calcium channel, sequence (P54289 25-1103): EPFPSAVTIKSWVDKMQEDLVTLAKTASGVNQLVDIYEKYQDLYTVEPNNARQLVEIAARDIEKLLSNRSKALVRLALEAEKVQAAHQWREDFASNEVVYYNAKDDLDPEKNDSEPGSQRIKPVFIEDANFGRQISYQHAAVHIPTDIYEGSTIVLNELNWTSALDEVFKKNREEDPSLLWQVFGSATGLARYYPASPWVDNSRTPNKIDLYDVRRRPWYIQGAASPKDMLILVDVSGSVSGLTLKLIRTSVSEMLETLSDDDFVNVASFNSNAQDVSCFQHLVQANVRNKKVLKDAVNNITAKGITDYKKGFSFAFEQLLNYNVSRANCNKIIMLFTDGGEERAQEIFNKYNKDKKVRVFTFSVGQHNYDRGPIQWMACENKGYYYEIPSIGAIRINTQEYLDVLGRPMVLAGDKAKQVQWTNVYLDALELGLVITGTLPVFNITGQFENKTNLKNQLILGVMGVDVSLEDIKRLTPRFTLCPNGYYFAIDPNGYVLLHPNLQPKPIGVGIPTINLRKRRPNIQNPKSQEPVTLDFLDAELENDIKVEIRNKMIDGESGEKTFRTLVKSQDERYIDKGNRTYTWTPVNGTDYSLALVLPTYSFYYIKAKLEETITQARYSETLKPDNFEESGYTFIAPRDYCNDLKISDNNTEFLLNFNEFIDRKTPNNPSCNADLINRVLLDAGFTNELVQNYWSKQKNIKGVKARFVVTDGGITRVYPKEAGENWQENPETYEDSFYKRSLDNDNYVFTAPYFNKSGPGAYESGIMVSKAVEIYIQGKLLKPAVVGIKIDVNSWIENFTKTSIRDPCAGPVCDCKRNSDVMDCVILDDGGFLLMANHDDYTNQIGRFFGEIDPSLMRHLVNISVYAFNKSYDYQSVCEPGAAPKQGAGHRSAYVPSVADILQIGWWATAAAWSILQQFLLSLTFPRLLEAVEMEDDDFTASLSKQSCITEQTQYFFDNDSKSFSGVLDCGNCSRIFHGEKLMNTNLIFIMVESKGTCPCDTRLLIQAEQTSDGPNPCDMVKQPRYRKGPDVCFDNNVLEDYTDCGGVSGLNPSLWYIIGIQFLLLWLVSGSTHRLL

Turning to `CNCCC(OCc1cccc(N2CCNCCC2=O)c1)c1ccccc1` (stereo not drawn) [Example 37, 4-(3-((3-(Methylamino)-1-phenylpropoxy)methyl)phenyl)-1,4-diazepan-5-one], the Ki in experiment [1] (Table 1) is 500 to 3000 nM; in experiment [1] (Table 2, dual compounds) it was 500 to 3000 nM; in experiment [2], 100 to 500 nM.

Turning to `CNCCC(Oc1cccc(N2CCN(C(C)C)CCC2=O)c1)c1cccs1` (stereo not drawn) [Example 60, 1-Isopropyl-4-(3-(3-(methylamino)-1-(thiophen-2-yl)propoxy)phenyl)-1,4-diazepan-5-one], the Ki in experiment [1] (Table 1) was 500 to 3000 nM; in experiment [1] (Table 2, dual compounds), 500 to 3000 nM; in experiment [2] it was 500 to 1000 nM.

Turning to `CNCCC(Oc1cccc(CN2CCN(C)c3ccccc3C2)c1)c1cccs1` (stereo not drawn) [Example 1, N-methyl-3-(3-((1-methyl-1,2,3,5-tetrahydro-4H-benzo[e][1,4]diazepin-4-yl)methyl)phenoxy)-3-(thiophen-2-yl)propan-1-amine], the Ki in experiment [1] (Table 1) fell in the range of 100 to 500 nM; in experiment [1] (Table 2, dual compounds) it was 100 to 500 nM; in experiment [2] it was 500 to 1000 nM.

On to `CNCC[C@H](Oc1ccc(CN2CCN(C)c3nc(O)ccc3C2=O)c(F)c1)c1ccccc1` [Example 142, (S)-4-(2-fluoro-4-(3-(methylamino)-1-phenylpropoxy)benzyl)-8-hydroxy-1-methyl-1,2,3,4-tetrahydro-5H-pyrido[2,3-e][1,4]diazepin-5-one], for which the Ki in experiment [1] (Table 1) is above 3000 nM; in experiment [1] (Table 2, dual compounds), above 3000 nM; in experiment [2], below 100 nM.

As to `CNCC[C@@H](Oc1cccc(N2CCN(C(C)C)CCC2=O)c1)c1cccs1` [Example 67, (R)-1-isopropyl-4-(3-(3-(methylamino)-1-(thiophen-2-yl)propoxy)phenyl)-1,4-diazepan-5-one], the Ki in experiment [1] (Table 1) fell in the range of 100 to 500 nM; in experiment [1] (Table 2, dual compounds) it was 100 to 500 nM; in experiment [2], 500 to 1000 nM.

For the compound `CNCCC(Oc1ccc(CN2CCN(C)c3ncccc3C2=O)c(F)c1)c1cccc(F)c1` (stereo not drawn) [Example 123, 4-(2-Fluoro-4-(1-(3-fluorophenyl)-3-(methylamino)propoxy)benzyl)-1-methyl-1,2,3,4-telrahydro-5H-pyrido[2,3-e][1,4]diazepin-5-one], the Ki in experiment [1] (Table 1) is below 100 nM; in experiment [1] (Table 2, dual compounds), below 100 nM; in experiment [2], below 100 nM.

For the compound `CCNc1ccc2c(n1)N(C)CCN(Cc1ccc(O[C@@H](CCNC)c3cccc(F)c3)cc1F)C2=O` [Example 148, (S)-8-(ethylamino)-4-(2-fluoro-4-(1-(3-fluorophenyl)-3-(methylamino)propoxy)benzyl)-1-methyl-1,2,3,4-tetrahydro-5H-pyrido[2,3-e][1,4]diazepin-5-one], the Ki in experiment [1] (Table 1) is 100 to 500 nM; in experiment [1] (Table 2, dual compounds) it was 100 to 500 nM; in experiment [2], below 100 nM.

As for `CNCC[C@H](Oc1ccc(CN2CCCn3nccc3C2=O)cc1)c1cccs1` [Example 104, (S)-5-(4-(3-(methylamino)-1-(thiophen-2-yl)propoxy)benzyl)-5,6,7,8-tetrahydro-4H-pyrazolo[1,5-a][1,4]diazepin-4-one], the Ki in experiment [1] (Table 1) is 100 to 500 nM; in experiment [1] (Table 2, dual compounds), 100 to 500 nM; in experiment [2], 100 to 500 nM.
